# Read-outs that look alike come from different tables or passages of the source.
# Legend:
# CEM cells = assay: Cytotoxicity in growing CEM cells, microscopic inspection; format: cell-based
# Protocol: (§1) Cells and viruses. The routine growth and passage of KB cells was performed in monolayer cultures using minimal essential medium (MEM) with either Hanks salts [MEM(H)] or Earle salts [MEM(E)] supplemented with 10% calf serum. The sodium bicarbonate concentration was varied to meet the buffering capacity required. Cultures of diploid human foreskin fibroblasts (HFF) or MRC-5 cells were grown in medium consisting of MEM(E) with 10% fetal bovine serum. Cells were passaged at 1:2 to 1:10 dilutions according to conventional procedures by using 0.05% trypsin plus 0.02% EDTA in a HEPES buffered salt solution (HBS) (Shipman, C., Jr., Proc. Soc. Exp. Biol. 130:305-310 (1969)) as described previously. Turk, S. R., et al., Antimicrob. Agents Chemother. 31:544-550 (1987). HFF and MRC-5 cells were passaged only at 1:2 dilutions. CEM cells were maintained in suspension culture as detailed previously. Kucera, L. S., et al., AIDS Res. Human Retroviruses 9:307-314 (1993).
# (§2) Cytotoxicity assays. Two different assays were used to explore cytotoxicity of selected compounds as we have detailed previously. (i) Cytotoxicity produced in stationary HFF cells and in growing CEM cells was determined by microscopic inspection of cells used in plaque and RT assays which were not affected by the virus. Turk, S. R., et al., Antimicrob. Agents Chemother. 31:544-550 (1987). (ii) The effect of compounds during two population doublings of KB cells was determined by crystal violet staining and spectrophotometric quantitation of dye eluted from stained cells. Prichard, M. N., et al., Antimicrob. Agents Chemother. 35:1060-1065 (1991).
# (§3) Data Analysis. Dose-response relationships were constructed by linearly regressing the percent inhibition of parameters derived in the preceding sections against log drug concentrations. Fifty-percent inhibitory (IC50) concentrations were calculated from the regression lines. Samples containing positive controls (acyclovir for HSV-1, ganciclovir for HCMV, and 2-acetylpyridine thiosemicarbazone for cytotoxicity) were used in all assays.
# HFF cells = assay: Cytotoxicity in stationary HFF cells, microscopic inspection; format: cell-based, human
# Protocol: as §1, §2, §3
# HIV-1 = HIV-1 reverse transcriptase assay in infected CEM cells; format: cell-based, strain IIIB of HIV-1
# Protocol: (d) HIV-1. Reverse transcriptase (RT) was employed as a marker for HIV-1. This assay measured the presence of HIV in supernatants of CEM cells infected with strain IIIB of HIV-1 by the amount of RT activity. Cells were grown, infected, and incubated in the presence of seven concentrations (one-half log10 dilutions) beginning at 1 or 100 μM of compounds to be assayed. Procedures and the RT assay were performed as detailed previously. Kucera, L. S., et al., AIDS Res. Human Retroviruses 9:307-314 (1993); White, E. L., et al., Antiviral Res. 16:257-266 (1991).
# KB cells = assay: Cytotoxicity in KB cells, growth over two population doublings; format: cell-based
# Protocol: as §1, §2, §3
# HCMV = HCMV plaque reduction assay in HFF cells; format: cell-based, Human CMV (HCMV); settings: for IC50: HFF cells, plaque reduction; for activity against HCMV (in words): racemic analogues
# Protocol: as §1
# (§4) Virological procedures. Stock HCMV was prepared by infecting HFF cells at a multiplicity of infection (m.o.i.) of <0.01 plaque-forming units (p.f.u.) per cell. Cell growth medium was changed every four days until cytopathology was evident in all cells (approximately 21 days). Supernatant fluids were retained as the virus stock. High titer HSV-1 stocks were prepared by infecting KB cells at an m.o.i. of <0.1 as detailed previously. Turk, S. R., et al., Antimicrob. Agents Chemother. 31:544-550 (1987). Virus titers were determined using monolayer cultures of HFF cells for HCMV and monolayer cultures of BSC-1 cells for HSV-1 as described earlier. Prichard, M. N., et al., J. Virol. Methods 28:101-106 (1990). Briefly, HFF or BSC-1 cells were planted as described above in 96-well cluster dishes and incubated overnight at 37° C. in a humidified 3% CO297% air atmosphere. The next day cultures were inoculated with HCMV or HSV-1 and serially diluted 1:3 across the remaining eleven columns of the 96-well plate. Cultures were incubated at 37° C. for 2 hr to permit virus adsorption and then virus inoculum was replaced with 0.2 mL of fresh medium. Cultures were incubated for seven days for HCMV, two or three days for HSV-1, medium was removed, and the cell sheets were stained with 0.1% crystal violet in 20% methanol. Plaques were enumerated under 20-fold magnification in wells having the dilution which gave 5 to 20 plaques per well. Virus titers were calculated according to the following Formula: Titer (p.f.u./mL)=number of plaques×5×3^n; where n represents the nth dilution of the virus used to infect the well in which plaques were enumerated.
# (a) HCMV. The effect of compounds on the replication of HCMV has been measured using a plaque reduction assay. HFF cells in 24-well cluster dishes were infected with approximately 100 p.f.u. of HCMV per cm^2 cell sheet using the procedures detailed above. Following virus adsorption, compounds dissolved in growth medium were added to duplicate wells in three to six selected concentrations. Following incubation at 37° C. for 7 to 10 days, cell sheets were fixed, stained with crystal violet and microscopic plaques enumerated as described above. Drug effects were calculated as a percentage of reduction in number of plaques in the presence of each drug concentration compared to the number observed in the absence of drug. Ganciclovir (DHPG) was used as a positive control in all experiments.
# as §3
# HSV-1 = HSV-1 ELISA in BSC-1 cells; format: cell-based, herpes simplex 1 (HSV-1); settings: for IC50: ELISA
# Protocol: as §4
# (b) HSV-1. An enzyme-linked immunosorbent assay (ELISA) was employed to detect HSV-1. 96-well cluster dishes were planted with BSC-1 cells at 10,000 cells per well, in a total volume of 200 μL per well of MEM(E) plus 10% calf serum. After overnight incubation at 37° C., drug and HSV-1 was added at the rate of 100 PFU/well. ELISA plates were blocked with 200 μL per well of 10% calf serum and 0.05% tween in HBS. After incubation for 30 minutes, the blocking agent was rinsed two times with HBS-T. A 1:400 dilution of AP conjugated rabbit anti-HSV-1 antibody in HBS-F was added. Plates were sealed with adhesive sheet, and incubated on rocker for one hour at 37° C. Plates were developed in the dark with 100 μL per well of substrate solution containing p-nitrophenyl phosphate. Plates were read at […]. Drug effects were calculated as a percentage of the reduction in virus in the presence of each drug concentration compared to the titer obtained in the absence of drug. Acyclovir was used as a positive control in all experiments.
# as §3
# [1] = Example 26, high multiplicity of infection (moi), read-out: HIV-1 IC50, reverse transcriptase assay
# [2] = Example 26, listed as R-1 (B = 2-amino-6-methoxy-purine), Example 22
# [3] = reverse transcriptase assay, CEM cells, low moi (footnote c of the 5th table), read-out: HIV-1, IC50
# [4] = KB cell growth, read-out: Cytotoxicity IC50 KB (growth)
# [5] = Example 26, listed as S-1 (B = 2-amino-6-methoxy-purine), Example 22
structure (smiles),measurement,setting,value
"Nc1nc(NC2CC2)c2ncn(C=C3CC3CO)c2n1 (stereo not shown) [R-1 (B = 2-aminopurine-6-cyclo-propylaminopurine), Example 2]",IC50,CEM cells,> 100 µM
same,IC50,HFF cells,> 100 µM
same,IC50,HIV-1; [1],> 100 µM
same,IC50,KB cells,> 100 µM
same,IC50,HCMV; Example 26,> 100 µM
same,IC50,HSV-1; Example 26,> 100 µM
COc1nc(N)nc2c1ncn2C=C1CC1CO (stereo not drawn) [syn-2-Amino-6-methoxy-N^9-(2-hydroxymethyl-cyclopropylidenemethyl)purine],IC50,HIV-1; [1],> 100 µM
same,IC50,HCMV; Example 26,3.1 µM
same,activity against HCMV (in words),HCMV; Example 26,good activity
same,activity against HSV-1 (in words),HSV-1; Example 26,significant activity
same,IC50,HSV-1; Example 26,33 µM
"Nc1nc(N)c2ncn(C=C3CC3CO)c2n1 (stereo not shown) [S-1 (B = 2,6-diaminopurine), Example 22]",IC50,CEM cells,> 100 µM
same,IC50,HFF cells,21 µM
same,IC50,HIV-1; [1],> 100 µM
same,IC50,KB cells,> 100 µM
same,IC50,HCMV; Example 26,21 µM
same,IC50,HSV-1; Example 26,> 100 µM
"Nc1nc(Cl)c2ncn(C=C3CC3CO)c2n1 (stereo not shown) [R-1 (B = 2-amino-6-chloropurine), Example 22]",IC50,CEM cells,> 100 µM
same,IC50,HFF cells,32 µM
same,IC50,HIV-1; [1],> 100 µM
same,IC50,KB cells,> 100 µM
same,IC50,HCMV; Example 26,30 µM
same,IC50,HSV-1; Example 26,> 100 µM
"Nc1nc2c(ncn2C=C2CC2CO)c(=O)[nH]1 (stereo not shown) [S-1 (B = guanine), Example 22]",IC50,CEM cells,> 100 µM
same,IC50,HFF cells,> 100 µM
same,IC50,HIV-1; [1],> 100 µM
same,IC50,KB cells,> 100 µM
same,IC50,HCMV; Example 26,2.5 µM
same,IC50,HSV-1; Example 26,45 µM
COc1nc(N)nc2c1ncn2C=C1CC1CO (stereo not shown) [listing 1 of 2 here],IC50,CEM cells,> 100 µM
same,IC50,HFF cells,> 100 µM
same,IC50,"HIV-1; Example 26, high multiplicity of infection (moi), listed as R-1 (B = 2-amino-6-methoxy-purine), Example 22, read-out: HIV-1 IC50, reverse transcriptase assay",> 100 µM
same,IC50,KB cells,> 100 µM
same,IC50,HCMV; [2],> 100 µM
same,IC50,HSV-1; [2],> 100 µM
"Nc1ncnc2c1ncn2/C=C1/C[C@H]1CO [R-1 (B = adenine), Example 23, (R)-(−)-Synadenol]",IC50,CEM cells,> 100 µM
same,IC50,HFF cells,> 100 µM
same,IC50,HIV-1; [1],7 µM
same,IC50,KB cells,> 100 µM
same,IC50,HCMV; Example 26,2.9 µM
same,IC50,HSV-1; Example 26,38 µM
"COC(=O)[C@H](C)NP(=O)(OCC1CC1=Cn1cnc2c(N)nc(N)nc21)Oc1ccccc1 (stereo partly drawn) [3 (B = 2,6-diaminopurine), Example 15, Methyl Phenylphosphoro-L-alaninate of syn-2,6-diamino-N^9-(2-Hydroxycyclopropylidene-methyl)purine]",IC50,"HFF cells; stationary HFF cells, visual, read-out: Cytotoxicity IC50 HFF (visual)",> 100 µM
same,IC50,HIV-1; [3],0.26 µM
same,IC50,KB cells; [4],40 µM
same,IC50,HCMV,4 µM
same,IC50,HSV-1; BSC-1 cells,50 µM
"Nc1nc2c(ncn2C=C2CC2CO)c(=O)[nH]1 (stereo not shown) [R-1 (B = guanine), Example 22]",IC50,CEM cells,> 100 µM
same,IC50,HFF cells,> 100 µM
same,IC50,HIV-1; [1],> 100 µM
same,IC50,KB cells,> 100 µM
same,IC50,HCMV; Example 26,> 100 µM
same,IC50,HSV-1; Example 26,> 100 µM
COc1nc(N)nc2c1ncn2C=C1CC1CO (stereo not shown) [listing 2 of 2 here],IC50,"HIV-1; Example 26, high multiplicity of infection (moi), listed as S-1 (B = 2-amino-6-methoxy-purine), Example 22, read-out: HIV-1 IC50, reverse transcriptase assay",42 µM
same,IC50,HCMV; [5],2.5 µM
same,IC50,HSV-1; [5],20 µM
"COC(=O)[C@H](C)NP(=O)(OCC1CC1=Cn1cnc2c(N)ncnc21)Oc1ccccc1 (stereo partly drawn) [4 (B = adenine), Example 14, Methyl Phenylphosphoro-L-alaninate of anti-N^9-(2-Hydroxymethylcyclopropylidenemethyl)adenine]",IC50,"CEM cells; growing CEM cells, visual, read-out: Cytotoxicity IC50 CEM (visual)",66 µM
same,IC50,HIV-1; [3],1.6 µM
same,IC50,KB cells; [4],50 µM
same,IC50,HCMV,21 µM
same,IC50,HSV-1; BSC-1 cells,65 µM
"Nc1nc(N)c2ncn(C=C3CC3CO)c2n1 (stereo not shown) [R-1 (B = 2,6-diaminopurine), Example 22]",IC50,CEM cells,> 100 µM
same,IC50,HFF cells,> 100 µM
same,IC50,HIV-1; [1],> 100 µM
same,IC50,KB cells,> 100 µM
same,IC50,HCMV; Example 26,> 100 µM
same,IC50,HSV-1; Example 26,> 100 µM
"Nc1ncnc2c1ncn2/C=C1/C[C@@H]1CO [S-1 (B = adenine), Example 24, (S)-(+)-Synadenol]",IC50,CEM cells,> 100 µM
same,IC50,HFF cells,100 µM
same,IC50,HIV-1; [1],1.2 µM
same,IC50,KB cells,80 µM
same,IC50,HCMV; Example 26,2.4 µM
same,IC50,HSV-1; Example 26,8.8 µM
"Nc1nc(Cl)c2ncn(C=C3CC3CO)c2n1 (stereo not shown) [S-1 (B = 2-amino-6-chloropurine), Example 22]",IC50,CEM cells,> 100 µM
same,IC50,HFF cells,> 100 µM
same,IC50,HIV-1; [1],> 100 µM
same,IC50,KB cells,> 100 µM
same,IC50,HCMV; Example 26,1.8 µM
same,IC50,HSV-1; Example 26,45 µM
"Nc1nc(NC2CC2)c2ncn(C=C3CC3CO)c2n1 (stereo not shown) [S-1 (B = 2-aminopurine-6-cyclo-propylaminopurine), Example 2]",IC50,CEM cells,> 100 µM
same,IC50,HFF cells,> 100 µM
same,IC50,HIV-1; [1],65 µM
same,IC50,KB cells,> 100 µM
same,IC50,HCMV; Example 26,1.8 µM
same,IC50,HSV-1; Example 26,20 µM
[N-]=[N+]=Nc1nc(N)nc2c1ncn2C=C1CC1CO (stereo not drawn) [syn-2-Amino-6-azido-N^9-(2-hydroxymethyl-cyclopropylidene-methyl)purine],IC50,CEM cells,> 100 µM
same,IC50,HFF cells,> 100 µM
same,IC50,HIV-1; [1],> 100 µM
same,IC50,KB cells,> 100 µM
same,IC50,HCMV; Example 26,41 µM
same,activity against HCMV (in words),HCMV; Example 26,good activity
same,IC50,HSV-1; Example 26,> 100 µM
